Results on 26 compounds are retold here after ChEMBL document CHEMBL5154647, “Discovery of seneciobipyrrolidine derivatives for the amelioration of glucose homeostasis disorders through 4E-BP1/Akt/AMPK signaling activation” (Eur J Med Chem, 2022).

Series [1] deals with L6. As to the kind of experiment: Induction of glucose uptake in rat L6 myoblasts at 20 uM measured after 2 hrs by liquid scintillation counter. Type of series: functional.
For series [2], the system named is L6. As to the kind of experiment: Induction of glucose uptake in rat L6 myoblasts preincubated for 3 hrs with compound and in presence of 2-deoxyglucose measured after 1 hrs by DNTB reagent based colorimetric assay. Type of series: functional, cell-based.
Series [3] concerns L6. As to the kind of experiment: Induction of glucose uptake in rat L6 myoblasts assessed as 2-DG concentration at 25 uM preincubated for 3 hrs and in presence of 2-deoxyglucose measured after 1 hrs by DNTB reagent based colorimetric assay. The conditions noted are these: time 4 hrs. Type of series: functional.
Series [4] is described as follows: Half life in Sprague-Dawley rat at 5 mg/kg, iv measured upto 24 hrs by LC/MS/MS analysis. Type of series: ADME, organism-based. The conditions noted are these: in vivo.
A short description of series [5]: Cmax in Sprague-Dawley rat at 5 mg/kg, iv measured upto 24 hrs by LC/MS/MS analysis. Type of series: ADME, organism-based. Set-up: dose 5 mg/kg, time < 24 hrs, route iv. The conditions noted are these: in vivo.
Series [6] can be described thus: AUC (0 to t) in Sprague-Dawley rat at 5 mg/kg, iv measured upto 24 hrs by LC/MS/MS analysis. Set-up: dose 5 mg/kg, time < 24 hrs, route iv. The following applies: in vivo. Type of series: ADME, organism-based.
A short description of series [7]: Tmax in Sprague-Dawley rat at 20 mg/kg, po measured upto 10 hrs by LC/MS/MS analysis. Type of series: ADME, organism-based. The following applies: in vivo.
The nature of series [8]: Half life in Sprague-Dawley rat at 20 mg/kg, po measured upto 10 hrs by LC/MS/MS analysis. The series is classed as ADME, organism-based. The conditions noted are these: in vivo.
A short description of series [9]: Cmax in Sprague-Dawley rat at 20 mg/kg, po measured upto 10 hrs by LC/MS/MS analysis. Type of series: ADME, organism-based. The following applies: in vivo. On the set-up: time < 10 hrs, dose 20 mg/kg, route po.
The nature of series [10]: AUC (0 to t) in Sprague-Dawley rat at 20 mg/kg, po measured upto 10 hrs by LC/MS/MS analysis. Type of series: ADME, organism-based. On the set-up: time < 10 hrs, dose 20 mg/kg, route po. The conditions noted are these: in vivo.
Series [11] can be described thus: Oral bioavailability in Sprague-Dawley rat at 20 mg/kg measured upto 10 hrs by LC/MS/MS analysis. Type of series: ADME, organism-based. The following applies: in vivo.
The nature of series [12]: Microsomal stability in mouse liver microsomes assessed as half life preincubated with NADPH measured upto 60 mins by LC-MS analysis. The series is classed as ADME, Microsome.
Series [13] in a line: Microsomal stability in monkey liver microsomes assessed as half life preincubated with NADPH measured upto 60 mins by LC-MS analysis. The series is classed as ADME, Macaca mulatta, Microsome. The following applies: rhesus monkey. A general note: Liver microsomes are a subcellular fraction often used to study metabolism.
Series [14] relates to L6. As to the kind of experiment: Induction of glucose uptake in rat L6 myoblasts at 3 uM measured after 2 hrs by liquid scintillation counter. Type of series: functional.

One may read the EC50 as the concentration that produces a half-maximal response. Regarding `COc1ccc2c(c1)[C@H]1[C@H](CCN1C(=O)c1ccc3ccccc3c1)[C@H]1CCCN21` (racemic), the Activity came to 172.4% in [1] and 52.9 pmol/µL in series [3]. In addition, the EC50 in [2] was determined as 34.5 µM.

In series [1], `COc1ccc(N2CC[C@@H]3[C@@H]4CCCN4c4ccc(OC)cc4[C@@H]32)cc1` (racemic) gave an Activity of 46.2%.

Take `Cc1ccc(CN2CC[C@@H]3[C@H]4CCCN4c4ccc(C)cc4[C@@H]32)cc1` (racemic): the Activity in series [1] came to 149.2%; in series [3], 59.6 pmol/µL.

On to `COc1ccc2c(c1)[C@H]1[C@H](CCN1C(=O)Cc1ccc(Cl)cc1)[C@H]1CCCN21` (racemic), for which the Activity worked out at 98.1% in [1] and 33.1 pmol/µL in series [3].

As for `COc1ccccc1N1CC[C@@H]2[C@H]3CCCN3c3c(OC)cccc3[C@@H]21` (racemic), the Activity in series [1] is on record as 109.5%.

In the case of `COc1ccc2c(c1)[C@H]1[C@H](CCN1Cc1ccccc1)[C@H]1CCCN21` (racemic), the results for the Activity in series [1] and in series [3] were 66.4% and 51.6 pmol/µL, respectively.

In series [1], `COc1ccc(N2CC[C@@H]3[C@@H]4CCCN4c4cc(O)c(OC)cc4[C@@H]32)cc1O` (racemic) had an Activity of 70.6%.

In [1], `Fc1ccc(N2CC[C@@H]3[C@@H]4CCCN4c4ccc(F)cc4[C@@H]32)cc1` (racemic) displayed an Activity of 58.3%.

The compound `COc1ccc(CN2CC[C@@H]3[C@H]4CCCN4c4ccc(OC)cc4[C@@H]32)cc1` (racemic) registered an Activity in series [1] of 15%.

Compound `COc1ccc2c(c1)[C@H]1[C@H](CCN1Cc1ccc(Cl)cc1)[C@H]1CCCN21` (racemic) displayed an Activity in series [1] of 22.3%.

With `COc1ccc2c(c1)[C@H]1[C@H](CCN1C(=O)c1ccc(C#N)cc1)[C@H]1CCCN21` (racemic), the Activity is 71.4% in series [1] and 5.5 pmol/µL in series [3].

In series [1], `COc1cc2c(cc1OC)N1CCC[C@@H]1[C@H]1CCN(Cc3ccc(C)cc3)[C@@H]21` (racemic) registered an Activity of 34.2%.

In series [1], `Cc1ccc(N2CC[C@@H]3[C@@H]4CCCN4c4ccc(C)cc4[C@@H]32)cc1` (racemic) returned an Activity of 63.5%.

Take `COc1ccc(N2CC[C@@H]3[C@H]4CCCN4c4ccc(OC)cc4[C@@H]32)cc1` (racemic): in series [1], the Activity was found to be 142.6%.

Turning to `COc1ccc2c(c1)[C@H]1[C@H](CCN1Cc1ccc(C)cc1)CN2C` (racemic), in series [1], the Activity was 80.6%.

`Cc1ccc(N2CC[C@@H]3[C@H]4CCCN4c4ccc(C)cc4[C@@H]32)cc1` (racemic): the Activity was 130.9% in series [1] and 13.1 pmol/µL in series [3].

What is called half-life is the time needed for the level to fall by half in the phase considered. In general, Cmax refers to the highest concentration seen after dosing. The term AUC(0-t) denotes the area under the concentration-time curve up to a stated or last time point. For orientation: Tmax means the time at which the peak concentration occurs. What is called bioavailability is the share of a dose that reaches the circulation, judged against a reference dose that is usually intravenous. With `COc1ccc2c(c1)[C@H]1[C@H](CCN1Cc1ccc3c(ccn3C)c1)[C@H]1CCCN21` (racemic), the Activity came out at 68.7% in series [1] and 23.4 pmol/µL in series [3]. Besides, the figures for the half-life in [4] and in series [8] were 7.6 h and 11.9 h, respectively. In addition, the figures for the Cmax in series [5] and in series [9] were 981 ng/mL and 307 ng/mL, respectively. In [6], this compound yielded an AUC(0-t) at 24 h of 1480 ng·h/mL. Moreover, the Tmax in series [7] stood at 0.4 h. Further, the AUC(0-t) at 10 h in series [10] was 561 ng·h/mL. In [11], this compound registered a bioavailability of 9.5%.

Turning to `COc1ccc2c(c1)[C@H]1[C@H](CCN1C(=O)c1ccc(O)cc1)[C@H]1CCCN21` (racemic), the Activity in [1] is given as 86.7%.

Take `COc1ccc2c(c1)[C@H]1[C@H](CCN1C(=O)Cc1ccc(C)cc1)[C@H]1CCCN21` (racemic): in [1], the Activity is listed as 101.2%.

As for `NC(=O)Cc1ccc(N2CC[C@@H]3[C@H]4CCCN4c4ccc(CC(N)=O)cc4[C@@H]32)cc1` (racemic), the results for the half-life in series [12] and in [13] were 3.12 h and 0.578 h, respectively.

In series [1], `COc1cccc(N2CC[C@@H]3[C@H]4CCCN4c4cc(OC)ccc4[C@@H]32)c1` (racemic) registered an Activity of 22.4%.

With `COc1ccc2c(c1)[C@H]1[C@H](CCN1CCc1ccccc1)[C@H]1CCCN21` (racemic), the Activity in [1] was found to be 55.9%; in [3], 23.4 pmol/µL.

Turning to `Cc1cccc(N2CC[C@@H]3[C@H]4CCCN4c4cc(C)ccc4[C@@H]32)c1` (racemic), the Activity in [1] is 76.4%.

The compound `COc1ccc2c(c1)[C@H]1[C@H](CCN1CCc1ccc(C)cc1)[C@H]1CCCN21` (racemic) returned an Activity in [1] of 86.3%.

Turning to `Cc1ccc(CN2CC[C@@H]3[C@H]4CCCN4c4ccccc4[C@@H]32)cc1` (racemic), in [1], the Activity amounted to 155.4%.

In the case of `COc1cc(C[C@H]2C(=O)OC[C@@H]2Cc2ccc(OC)c(OC)c2)ccc1O` [ARCTIGENIN], the values for the Activity in series [3] and in series [14] were 23.5 pmol/µL and 146%, respectively.
